Reference: ChEMBL document CHEMBL3885881, “DrugMatrix”

Species: Rattus norvegicus
Assay: DrugMatrix - Regimen: Daily Repeat
Assay type: toxicity, organism-based, Sprague-Dawley
Design: regimen Daily Repeat, gender Male, age 6-8 weeks
Settings: in vivo, iv, vehicle 100 % SALINE; for ABSOLUTE BASOPHIL / ABSOLUTE EOSINOPHIL / ABSOLUTE LYMPHOCYTE / ABSOLUTE MONOCYTE / ABSOLUTE SEGMENTED NEUTROPHIL / BASOPHIL / EOSINOPHIL / ERYTHROCYTE COUNT / HEMATOCRIT / HEMOGLOBIN / LEUKOCYTE COUNT / LYMPHOCYTE / MEAN CORPUSCULAR HEMOGLOBIN / MEAN CORPUSCULAR HEMOGLOBIN CONCENTRATION / MEAN CORPUSCULAR VOLUME / MONOCYTE / NEUTROPHIL / NUCLEATED RED BLOOD CELLS / PLATELET COUNT: tissue Blood; for ALANINE AMINOTRANSFERASE / ALBUMIN / ALKALINE PHOSPHATASE / ASPARTATE AMINOTRANSFERASE / BLOOD UREA NITROGEN / CARBON DIOXIDE / CHLORIDE / CHOLESTEROL / CREATINE PHOSPHOKINASE / CREATININE / GLUCOSE / LACTATE DEHYDROGENASE / LIPASE / PHOSPHORUS / POTASSIUM / SODIUM / TOTAL BILIRUBIN / TOTAL PROTEIN / URIC ACID: tissue Plasma
[1] = 2 mg/kg, 72 h, dose level Low, time 3 day
[2] = 2 mg/kg, 120 h, dose level Low, time 5 day
[3] = 20 mg/kg, 72 h, dose level High, time 3 day
[4] = 20 mg/kg, 120 h, dose level High, time 5 day

## CCN1CC(CCN2CCOCC2)C(c2ccccc2)(c2ccccc2)C1=O (configuration not stated) [DOXAPRAM]
[1]
  ABSOLUTE BASOPHIL: 0 CELLS/uL
  ABSOLUTE EOSINOPHIL: 0 CELLS/uL
  ABSOLUTE LYMPHOCYTE: 13662.33 CELLS/uL
  ABSOLUTE MONOCYTE: 351.67 CELLS/uL
  ABSOLUTE SEGMENTED NEUTROPHIL: 2319.33 CELLS/uL
  BASOPHIL: 0%
  EOSINOPHIL: 0%
  ERYTHROCYTE COUNT: 5.67 x10E6/uL
  HEMATOCRIT: 35.7%
  HEMOGLOBIN: 14.2 G/DL
  LEUKOCYTE COUNT: 16.33 x10E3/uL
  LYMPHOCYTE: 84%
  MEAN CORPUSCULAR HEMOGLOBIN: 25.1 pg
  MEAN CORPUSCULAR HEMOGLOBIN CONCENTRATION: 39.77 G/DL
  MEAN CORPUSCULAR VOLUME: 63.03 fL
  MONOCYTE: 2%
  NEUTROPHIL: 14%
  NUCLEATED RED BLOOD CELLS: 0 /100WBC
  PLATELET COUNT: 1174 x10E3/uL
  ALANINE AMINOTRANSFERASE: 72.33 u/L
  ALBUMIN: 3.93 G/DL
  ALKALINE PHOSPHATASE: 296.67 u/L
  ASPARTATE AMINOTRANSFERASE: 101 u/L
  BLOOD UREA NITROGEN: 17 mg/dL
  CARBON DIOXIDE: 26.33 mmol/L
  CHLORIDE: 101.33 MEQ/L
  CHOLESTEROL: 83.33 mg/dL
  CREATINE PHOSPHOKINASE: 298.67 u/L
  CREATININE: 0.15 mg/dL
  GLUCOSE: 149 mg/dL
  LACTATE DEHYDROGENASE: 372.67 u/L
  LIPASE: 8 u/L
  PHOSPHORUS: 12.83 mg/dL
  POTASSIUM: 7.17 MEQ/L
  SODIUM: 146.3 MEQ/L
  TOTAL BILIRUBIN: 0.17 mg/dL
  TOTAL PROTEIN: 6.1 G/DL
  URIC ACID: 1.53 mg/dL
[2]
  ABSOLUTE BASOPHIL: 0 CELLS/uL
  ABSOLUTE EOSINOPHIL: 0 CELLS/uL
  ABSOLUTE LYMPHOCYTE: 13405 CELLS/uL
  ABSOLUTE MONOCYTE: 468.67 CELLS/uL
  ABSOLUTE SEGMENTED NEUTROPHIL: 2059.67 CELLS/uL
  BASOPHIL: 0%
  EOSINOPHIL: 0%
  ERYTHROCYTE COUNT: 6.04 x10E6/uL
  HEMATOCRIT: 37.2%
  HEMOGLOBIN: 14.8 G/DL
  LEUKOCYTE COUNT: 15.93 x10E3/uL
  LYMPHOCYTE: 84%
  MEAN CORPUSCULAR HEMOGLOBIN: 24.5 pg
  MEAN CORPUSCULAR HEMOGLOBIN CONCENTRATION: 39.8 G/DL
  MEAN CORPUSCULAR VOLUME: 61.53 fL
  MONOCYTE: 3%
  NEUTROPHIL: 13%
  NUCLEATED RED BLOOD CELLS: 0.67 /100WBC
  PLATELET COUNT: 1035 x10E3/uL
  ALANINE AMINOTRANSFERASE: 97.67 u/L
  ALBUMIN: 3.97 G/DL
  ALKALINE PHOSPHATASE: 400.33 u/L
  ASPARTATE AMINOTRANSFERASE: 101.33 u/L
  BLOOD UREA NITROGEN: 15.33 mg/dL
  CARBON DIOXIDE: 26.33 mmol/L
  CHLORIDE: 101.33 MEQ/L
  CHOLESTEROL: 65.33 mg/dL
  CREATINE PHOSPHOKINASE: 230 u/L
  CREATININE: 0.14 mg/dL
  GLUCOSE: 159.33 mg/dL
  LACTATE DEHYDROGENASE: 100.67 u/L
  LIPASE: 8.33 u/L
  PHOSPHORUS: 12.7 mg/dL
  POTASSIUM: 6.47 MEQ/L
  SODIUM: 144.37 MEQ/L
  TOTAL BILIRUBIN: 0.13 mg/dL
  TOTAL PROTEIN: 6.17 G/DL
  URIC ACID: 1.6 mg/dL
[3]
  ABSOLUTE BASOPHIL: 0 CELLS/uL
  ABSOLUTE EOSINOPHIL: 173.33 CELLS/uL
  ABSOLUTE LYMPHOCYTE: 15104 CELLS/uL
  ABSOLUTE MONOCYTE: 284 CELLS/uL
  ABSOLUTE SEGMENTED NEUTROPHIL: 1672 CELLS/uL
  BASOPHIL: 0%
  EOSINOPHIL: 1%
  ERYTHROCYTE COUNT: 5.38 x10E6/uL
  HEMATOCRIT: 34.17%
  HEMOGLOBIN: 13.5 G/DL
  LEUKOCYTE COUNT: 17.23 x10E3/uL
  LYMPHOCYTE: 87.67%
  MEAN CORPUSCULAR HEMOGLOBIN: 25.13 pg
  MEAN CORPUSCULAR HEMOGLOBIN CONCENTRATION: 39.53 G/DL
  MEAN CORPUSCULAR VOLUME: 63.6 fL
  MONOCYTE: 1.67%
  NEUTROPHIL: 9.67%
  NUCLEATED RED BLOOD CELLS: 0 /100WBC
  PLATELET COUNT: 1285.33 x10E3/uL
  ALANINE AMINOTRANSFERASE: 51.67 u/L
  ALBUMIN: 4.33 G/DL
  ALKALINE PHOSPHATASE: 402.67 u/L
  ASPARTATE AMINOTRANSFERASE: 102.67 u/L
  BLOOD UREA NITROGEN: 15 mg/dL
  CARBON DIOXIDE: 21.67 mmol/L
  CHLORIDE: 102 MEQ/L
  CHOLESTEROL: 79 mg/dL
  CREATINE PHOSPHOKINASE: 445.33 u/L
  CREATININE: 0.15 mg/dL
  GLUCOSE: 149.33 mg/dL
  LACTATE DEHYDROGENASE: 669.33 u/L
  LIPASE: 9 u/L
  PHOSPHORUS: 13.03 mg/dL
  POTASSIUM: 6.9 MEQ/L
  SODIUM: 143.67 MEQ/L
  TOTAL BILIRUBIN: 0.17 mg/dL
  TOTAL PROTEIN: 5.93 G/DL
  URIC ACID: 1.7 mg/dL
[4]
  ABSOLUTE BASOPHIL: 0 CELLS/uL
  ABSOLUTE EOSINOPHIL: 118.67 CELLS/uL
  ABSOLUTE LYMPHOCYTE: 15901.33 CELLS/uL
  ABSOLUTE MONOCYTE: 415.33 CELLS/uL
  ABSOLUTE SEGMENTED NEUTROPHIL: 1364.67 CELLS/uL
  BASOPHIL: 0%
  EOSINOPHIL: 0.67%
  ERYTHROCYTE COUNT: 5.51 x10E6/uL
  HEMATOCRIT: 34.63%
  HEMOGLOBIN: 13.57 G/DL
  LEUKOCYTE COUNT: 17.8 x10E3/uL
  LYMPHOCYTE: 89.33%
  MEAN CORPUSCULAR HEMOGLOBIN: 24.63 pg
  MEAN CORPUSCULAR HEMOGLOBIN CONCENTRATION: 39.17 G/DL
  MEAN CORPUSCULAR VOLUME: 62.8 fL
  MONOCYTE: 2.33%
  NEUTROPHIL: 7.67%
  NUCLEATED RED BLOOD CELLS: 0 /100WBC
  PLATELET COUNT: 1309.33 x10E3/uL
  ALANINE AMINOTRANSFERASE: 57 u/L
  ALBUMIN: 4.33 G/DL
  ALKALINE PHOSPHATASE: 365.67 u/L
  ASPARTATE AMINOTRANSFERASE: 95.67 u/L
  BLOOD UREA NITROGEN: 16 mg/dL
  CARBON DIOXIDE: 23.33 mmol/L
  CHLORIDE: 102.67 MEQ/L
  CHOLESTEROL: 66.33 mg/dL
  CREATINE PHOSPHOKINASE: 259 u/L
  CREATININE: 0.18 mg/dL
  GLUCOSE: 166 mg/dL
  LACTATE DEHYDROGENASE: 229 u/L
  LIPASE: 8.33 u/L
  PHOSPHORUS: 13.17 mg/dL
  POTASSIUM: 6.59 MEQ/L
  SODIUM: 144.97 MEQ/L
  TOTAL BILIRUBIN: 0.23 mg/dL
  TOTAL PROTEIN: 5.93 G/DL
  URIC ACID: 2.2 mg/dL
